Columns and labels:
Klebsiella pneumoniae = assay: Antibacterial activity against Klebsiella pneumoniae assessed as zone inhibition at 100 ug/ml; type: functional; details: read-out: IZ
Bacillus subtilis = assay: Antibacterial activity against Bacillus subtilis assessed as zone inhibition at 100 ug/ml; type: functional; details: read-out: IZ
Escherichia coli = assay: Antibacterial activity against Escherichia coli assessed as zone inhibition at 100 ug/ml; type: functional; details: read-out: IZ
Staphylococcus aureus = assay: Antibacterial activity against Staphylococcus aureus assessed as zone inhibition at 100 ug/ml; type: functional; details: read-out: IZ
[1] = Inhibition of Influenza A virus H3N2 Neuraminidase
Hepatovirus A = assay: Antiviral activity against Hepatitis A virus infected in HepG2 cells assessed as virus inhibition at 40 ug/L incubated overnight with virus followed by inoculation and measured after 1 hr by crystal violet staining based plaque reduction assay; type: functional
Homo sapiens [2] = species: Homo sapiens; assay: Selectivity ratio of Ki for human A1 receptor expressed in CHO cells to Ki for human A2A receptor expressed in CHO cells; type: cell-based
Homo sapiens [3] = species: Homo sapiens; assay: Selectivity ratio of Ki for human A1 receptor expressed in CHO cells to Ki for human A3 receptor expressed in CHO cells; type: cell-based
Homo sapiens [4] = species: Homo sapiens; assay: Selectivity ratio of Ki for human A2A receptor expressed in CHO cells to Ki for human A3 receptor expressed in CHO cells; type: cell-based
Adenosine receptor A1 = target: T1, Adenosine receptor A1 (Homo sapiens, UniProt P30542); assay: Displacement of [3H]-CCPA binding from human A1 receptor expressed in CHO cells by radioligand competitive binding assay; type: cell-based
T1 sequence (P30542 whole entry): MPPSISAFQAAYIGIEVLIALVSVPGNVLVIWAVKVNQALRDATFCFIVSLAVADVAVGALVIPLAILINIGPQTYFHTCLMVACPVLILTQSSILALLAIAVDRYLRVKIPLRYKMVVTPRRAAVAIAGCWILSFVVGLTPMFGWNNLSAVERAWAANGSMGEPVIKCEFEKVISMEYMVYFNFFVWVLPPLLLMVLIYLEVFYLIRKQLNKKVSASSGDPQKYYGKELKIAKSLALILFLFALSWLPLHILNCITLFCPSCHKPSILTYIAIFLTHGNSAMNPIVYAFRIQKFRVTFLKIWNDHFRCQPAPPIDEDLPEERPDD

Adenosine receptor A2a = Adenosine receptor A2a (Homo sapiens, UniProt P29274); assay: Displacement of [3H]-NECA from human A2A receptor expressed in CHO cells by radioligand competitive binding assay; type: cell-based
Adenosine receptor A3 = target: T2, Adenosine receptor A3 (Homo sapiens, UniProt P0DMS8); assay: Displacement of [3H]-HEMADO from human A3 receptor expressed in CHO cells by radioligand competitive binding assay; type: cell-based
T2 sequence (P0DMS8 whole entry): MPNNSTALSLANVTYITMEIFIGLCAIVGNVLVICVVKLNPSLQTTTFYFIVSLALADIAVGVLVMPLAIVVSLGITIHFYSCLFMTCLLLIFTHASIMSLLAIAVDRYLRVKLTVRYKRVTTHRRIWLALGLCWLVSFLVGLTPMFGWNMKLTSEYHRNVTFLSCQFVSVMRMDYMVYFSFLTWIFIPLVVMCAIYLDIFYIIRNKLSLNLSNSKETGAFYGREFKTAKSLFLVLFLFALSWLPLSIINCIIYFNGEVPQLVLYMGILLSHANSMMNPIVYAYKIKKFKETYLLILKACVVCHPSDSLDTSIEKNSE

Rattus norvegicus [5] = assay: Antiinflammatory activity in gamma irradiated rat assessed as reduction in serum IL-6 level at 150 mg/kg, ip administered once daily for 7 consecutive days by ELISA (reference value: 103.87 +/- 3.273 pg/ml); type: functional
Rattus norvegicus [6] = assay: Antiinflammatory activity in gamma irradiated rat assessed as reduction in serum TNFalpha level at 150 mg/kg, ip administered once daily for 7 consecutive days by ELISA (reference value: 105.07 +/- 3.925 pg/ml); type: functional
Rattus norvegicus [7] = assay: Antiinflammatory activity in gamma irradiated rat assessed as reduction in COX-2 level in liver tissue homogenates at 150 mg/kg, ip administered once daily for 7 consecutive days by ELISA (reference value: 89.50 +/- 2.617 ng/ml); type: functional
Rattus norvegicus [8] = assay: Antiinflammatory activity in gamma irradiated rat assessed as reduction in NFkappaB level in liver tissue homogenates at 150 mg/kg, ip administered once daily for 7 consecutive days by ELISA (reference value: 258.33 +/- 4.216 pg/ml); type: functional
[9] = target: Cyclin-dependent kinase 2/cyclin E1 (Homo sapiens, UniProt P24941); assay: Inhibition of CDK2/cyclin E (unknown origin) expressed in baculovirus infected Sf9 insect cells using GST-Rb as substrate in presence of [33P] ATP incubated for 30 mins
[10] = target: Cyclin-dependent kinase 4/cyclin D1 (Homo sapiens, UniProt P11802); assay: Inhibition of CDK4/cyclin D1 (unknown origin) expressed in baculovirus infected Sf9 insect cells using GST-Rb as substrate in presence of [33P] ATP incubated for 30 mins
Homo sapiens [11] = species: Homo sapiens; assay: Selectivity ratio of IC50 for CDK2/cyclin E (unknown origin) expressed in baculovirus infected Sf9 insect cells to IC50 for CDK4/cyclin D1 (unknown origin) expressed in baculovirus infected Sf9 insect cells
Human alphaherpesvirus 1 [12] = assay: Antiviral activity against Herpes simplex virus 1 at 20 ug/10^5; type: functional
Human alphaherpesvirus 1 [13] = assay: Antiviral activity against Herpes simplex virus 1 at 50 ug/10^5; type: functional
Mus musculus = assay: Analgesic activity in Swiss albino mouse assessed as protection against acetic acid-induced writhing at 15 mg/kg, po pretreated for 30 mins followed by acetic acid challenge and measured after 20 mins relative to control; type: functional
Rattus norvegicus [14] = assay: Antiinflammatory activity in Sprague-Dawley rat assessed as inhibition of carrageenan-induced edema at 15 mg/kg, po pretreated for 1 hr followed by carrageenan challenge and measured after 4 hrs by mercury plethysmometer relative to control; type: functional
[15] = Ulcerogenic activity in Sprague-Dawley rat assessed as ulcer index at 20 mg/kg, ip pretreated followed by pylorus ligation and measured at 4 hrs post ligation; type: toxicity, organism-based; details: in vivo
HCT-116 = assay: Antiproliferative activity against human HCT116 after 18 hrs by MTT assay; type: functional, cell-based; details: HCT-116, 18 h

Chain of Adenosine receptor A2a (P29274 whole entry): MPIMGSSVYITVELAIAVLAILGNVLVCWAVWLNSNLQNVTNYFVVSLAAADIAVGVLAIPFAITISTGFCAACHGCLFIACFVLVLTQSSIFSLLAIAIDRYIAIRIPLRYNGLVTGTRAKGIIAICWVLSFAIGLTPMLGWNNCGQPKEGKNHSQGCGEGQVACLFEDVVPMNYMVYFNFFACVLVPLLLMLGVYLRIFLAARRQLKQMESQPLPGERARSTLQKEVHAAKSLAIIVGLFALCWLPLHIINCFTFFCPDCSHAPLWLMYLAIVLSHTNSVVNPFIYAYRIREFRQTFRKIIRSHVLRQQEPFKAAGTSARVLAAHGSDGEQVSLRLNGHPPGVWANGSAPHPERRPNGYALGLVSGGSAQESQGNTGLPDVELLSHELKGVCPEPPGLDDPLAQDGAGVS
Chain of Cyclin-dependent kinase 4/cyclin D1 (P11802 whole entry): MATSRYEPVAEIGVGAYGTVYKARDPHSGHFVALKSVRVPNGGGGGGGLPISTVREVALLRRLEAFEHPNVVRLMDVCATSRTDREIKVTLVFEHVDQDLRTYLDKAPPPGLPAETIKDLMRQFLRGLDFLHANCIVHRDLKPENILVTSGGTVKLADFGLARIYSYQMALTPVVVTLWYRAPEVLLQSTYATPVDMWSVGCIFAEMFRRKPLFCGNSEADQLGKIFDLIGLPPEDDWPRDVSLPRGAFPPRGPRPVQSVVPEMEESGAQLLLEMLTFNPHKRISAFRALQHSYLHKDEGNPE
Chain of Cyclin-dependent kinase 4/cyclin D1 (P24385 whole entry, further chain): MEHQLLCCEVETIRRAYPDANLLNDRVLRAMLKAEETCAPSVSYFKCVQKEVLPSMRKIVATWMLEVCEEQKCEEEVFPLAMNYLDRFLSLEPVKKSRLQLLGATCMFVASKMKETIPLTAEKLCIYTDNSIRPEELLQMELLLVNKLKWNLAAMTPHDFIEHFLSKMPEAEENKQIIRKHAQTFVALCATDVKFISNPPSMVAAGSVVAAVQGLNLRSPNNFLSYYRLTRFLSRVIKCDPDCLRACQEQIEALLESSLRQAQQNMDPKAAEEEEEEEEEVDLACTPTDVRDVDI

SMILES: FC(F)(F)c1ccc(C2=NOC(c3cc4cncnc4s3)C2)cc1 (centres undefined)
- zone of inhibition at 100 µg/mL (Klebsiella pneumoniae): 16.5 mm
- zone of inhibition at 100 µg/mL (Bacillus subtilis): 13 mm
- zone of inhibition at 100 µg/mL (Escherichia coli): 17 mm
- zone of inhibition at 100 µg/mL (Staphylococcus aureus): 15 mm

SMILES: C/C(=N\Nc1nc(-c2c[nH]c3ccccc23)nc2sc3c(c12)CCCC3)c1ccccc1
- IC50 [1]: 237 nM

SMILES: NC12CC3CC(CC(C3)C1)C2 [AMANTADINE]
- inhibition (INH) (Hepatovirus A): 55%

SMILES: Cc1sc2nc(N)nc(-n3cncn3)c2c1C
- Ratio Ki (Homo sapiens [2]): 7.2
- Ratio Ki (Homo sapiens [3]): > 1.4
- Ratio Ki (Homo sapiens [4]): > 0.19
- Ki (Adenosine receptor A1): 40800 nM
- Ki (Adenosine receptor A2a): 5690 nM
- Ki (Adenosine receptor A3): > 30000 nM

SMILES: CCOC(=O)c1sc2ncnc(NCC(=O)O)c2c1C
- Serum IL-6 level (Rattus norvegicus [5]): 46.53 pg/mL
- Serum TNFalpha level (Rattus norvegicus [6]): 48.32 pg/mL
- COX-2 level in liver homogenate (Rattus norvegicus [7]): 31.17 ng/mL
- NFkappaB level in liver tissue (Rattus norvegicus [8]): 89.83 pg/mL

SMILES: CCOC(=O)c1sc2ncnc(Cl)c2c1C
- Serum IL-6 level (Rattus norvegicus [5]): 50.1 pg/mL
- Serum TNFalpha level (Rattus norvegicus [6]): 41.53 pg/mL
- COX-2 level in liver homogenate (Rattus norvegicus [7]): 36.33 ng/mL
- NFkappaB level in liver tissue (Rattus norvegicus [8]): 138.17 pg/mL

SMILES: O=CC1CN(c2nc(-c3c[nH]c4ccccc34)nc3sc4c(c23)CCCC4)N=C1c1ccccc1 (centres undefined)
- IC50 [1]: 89 nM

SMILES: CCC(C)c1cc2c(N/N=C/c3nc(CNC)cs3)ncnc2s1 (centres undefined)
- IC50 [9]: 440 nM
- IC50 [10]: 29 nM
- Ratio IC50 (Homo sapiens [11]): 15.2

SMILES: OCCSc1ncnc2sc3c(c12)-c1ccccc1CC3
- Activity (Human alphaherpesvirus 1 [12]): 5%
- Activity (Human alphaherpesvirus 1 [13]): 30%

SMILES: c1csc(C2=NOC(c3cc4cncnc4s3)C2)c1 (centres undefined)
- zone of inhibition at 100 µg/mL (Klebsiella pneumoniae): 14.5 mm
- zone of inhibition at 100 µg/mL (Bacillus subtilis): 11.5 mm
- zone of inhibition at 100 µg/mL (Escherichia coli): 15.5 mm
- zone of inhibition at 100 µg/mL (Staphylococcus aureus): 12.5 mm

SMILES: CC(=O)OC[C@H]1O[C@@H](Sc2nc3sc4c(c3c(=O)n2Cc2ccccc2)CCCCC4)[C@H](OC(C)=O)[C@@H](OC(C)=O)[C@@H]1OC(C)=O
- inhibition (INH) (Hepatovirus A): 55%

SMILES: CC(=O)Nc1nc2sc3c(c2c(=O)[nH]1)CCC3
- Ratio Ki (Homo sapiens [2]): > 3.3
- Ratio Ki (Homo sapiens [3]): > 74
- Ratio Ki (Homo sapiens [4]): > 22
- Ki (Adenosine receptor A1): > 100000 nM
- Ki (Adenosine receptor A2a): > 30000 nM
- Ki (Adenosine receptor A3): 1350 nM

SMILES: Nc1nc2c(ncn2COCCO)c(=O)[nH]1 [ACYCLOVIR]
- Activity (Human alphaherpesvirus 1 [12]): 100%

SMILES: CC(=O)OC[C@H]1O[C@@H](Sc2nc3sc4c(c3c(=O)n2CCO)CCCCC4)[C@H](OC(C)=O)[C@@H](OC(C)=O)[C@@H]1OC(C)=O
- inhibition (INH) (Hepatovirus A): 65%

SMILES: CNCc1csc(/C=N/Nc2ncnc3sc(C(C)C(C)C)cc23)n1 (centres undefined)
- IC50 [9]: 880 nM
- IC50 [10]: 22 nM
- Ratio IC50 (Homo sapiens [11]): 40

SMILES: O=C1c2ccccc2C(=O)N1Nc1nc(-c2c[nH]c3ccccc23)nc2sc3c(c12)CCCC3
- IC50 [1]: 67 nM

SMILES: CC(=O)Cc1c(C(C)C)sc2nc(C)[nH]c(=O)c12
- Activity (Mus musculus): 59%
- inhibition in vivo at 15 mg/kg (Rattus norvegicus [14]): 74.5%
- UI [15]: 1.1

SMILES: COCCSc1ncnc2sc3c(c12)-c1ccccc1CC3
- Activity (Human alphaherpesvirus 1 [12]): 15%
- Activity (Human alphaherpesvirus 1 [13]): 30%

SMILES: CCc1cc2c(OCc3cc(-c4ccc(OC)cc4)no3)ncnc2s1
- IC50 (HCT-116): 112000 nM

Reference: ChEMBL document CHEMBL4342407, “Thieno[2,3-d]pyrimidine as a promising scaffold in medicinal chemistry: Recent advances” (Bioorg Med Chem, 2019)
